Source: patent US9708334B2, “Substituted 2,4,5,6-tetrahydropyrrolo[3,4-c]pyrazole and 4,5,6,7-tetrahydro-2H-pyrazolo[4,3-c]pyridine compounds as GlyT1 inhibitors” (DART NEUROSCIENCE (CAYMAN) LTD., priority 2014, dated 2017)

Target: T1, GlyT1 (Homo sapiens, UniProt P48067)
T1 construct: expressed in transfected cells
T1 sequence (P48067 1-706): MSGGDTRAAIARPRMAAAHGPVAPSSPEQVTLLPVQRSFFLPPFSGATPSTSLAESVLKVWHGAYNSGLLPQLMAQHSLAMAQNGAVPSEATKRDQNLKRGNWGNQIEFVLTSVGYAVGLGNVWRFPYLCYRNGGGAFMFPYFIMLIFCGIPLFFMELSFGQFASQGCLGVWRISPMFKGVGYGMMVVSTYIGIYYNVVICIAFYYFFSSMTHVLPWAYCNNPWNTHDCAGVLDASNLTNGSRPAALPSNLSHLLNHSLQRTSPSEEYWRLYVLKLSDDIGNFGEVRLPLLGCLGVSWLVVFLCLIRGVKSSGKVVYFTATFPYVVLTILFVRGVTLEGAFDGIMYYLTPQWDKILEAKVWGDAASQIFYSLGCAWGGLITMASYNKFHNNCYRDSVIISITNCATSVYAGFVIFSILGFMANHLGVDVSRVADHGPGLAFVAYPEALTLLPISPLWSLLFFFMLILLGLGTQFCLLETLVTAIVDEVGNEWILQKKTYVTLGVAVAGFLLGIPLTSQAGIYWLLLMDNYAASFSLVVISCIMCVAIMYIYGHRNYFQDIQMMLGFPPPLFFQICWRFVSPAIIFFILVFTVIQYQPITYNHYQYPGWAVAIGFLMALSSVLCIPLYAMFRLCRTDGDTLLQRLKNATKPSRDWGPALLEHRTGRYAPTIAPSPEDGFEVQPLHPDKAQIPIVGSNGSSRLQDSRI
Assay: Glycine Transporter 1 (GlyT1) uptake assay, scintillation proximity assay of [14C]-glycine uptake
Type: cell-based
Conditions: SPA, four parameter logistic fit, read-out: GlyT1 (pIC50) (converted)
How it was run: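 [14C]-glycine uptake read by scintillation proximity on a plate counter. IC50 from four-parameter logistic fit of dose-response data.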

IC50 [nM] | Compound
< 100 | Cc1cc(-n2cc3c(n2)CN(C(=O)c2cc(C#N)ccc2OC(C)(C)C(F)(F)F)C3)ccn1 [Example 542, 3-[2-(2-Methylpyridin-4-yl)-2H 4H 5H 6H-pyrrolo[3,4-c]pyrazole-5-carbonyl]-4-[(1 1 1-trifluoro-2-methylpropan-2-yl)oxy]benzonitrile]
100 to 1000 | CCc1cc(-n2cc3c(n2)CN(C(=O)c2cc(C#N)ccc2OCC(F)(F)F)C3)ccn1 [Example 543, 3-[2-(2-Ethylpyridin-4-yl)-2H 4H 5H 6H-pyrrolo[3,4-c]pyrazole-5-carbonyl]-4-(2 2 2-trifluoroethoxy)benzonitrile]
100 to 1000 | CCc1cc(-n2cc3c(n2)CN(C(=O)c2cc(C#N)ccc2OCC2CC2)C3)ccn1 [Example 544, 4-(Cyclopropylmethoxy)-3-[2-(2-ethylpyridin-4-yl)-2H 4H 5H 6H-pyrrolo[3,4-c]pyrazole-5-carbonyl]benzonitrile]
100 to 1000 | CCc1cc(-n2cc3c(n2)CN(C(=O)c2cc(C#N)ccc2OCC(F)F)C3)ccn1 [Example 545, 4-(2 2-Difluoroethoxy)-3-[2-(2-ethylpyridin-4-yl)-2H 4H 5H 6H-pyrrolo[3,4-c]pyrazole-5-carbonyl]benzonitrile]
< 100 | CCc1cc(-n2cc3c(n2)CN(C(=O)c2cc(C#N)ccc2N2CCC(F)(F)CC2)C3)ccn1 [Example 546, 4-(4 4-Difluoropiperidin-1-yl)-3-[2-(2-ethylpyridin-4-yl)-2H 4H 5H 6H-pyrrolo[3,4-c]pyrazole-5-carbonyl]benzonitrile]
100 to 1000 | CS(=O)(=O)c1ccc(-c2ccc(C(F)(F)F)nc2)c(C(=O)N2Cc3cn(-c4ccccc4F)nc3C2)c1 [Example 547, 5-{2-[2-(2-Fluorophenyl)-2H 4H 5H 6H-pyrrolo[3,4-c]pyrazole-5-carbonyl]-4-methanesulfonylphenyl}-2-(trifluoromethyl)pyridine]
1000 to 10000 | CS(=O)(=O)c1ccc(-c2cncc(F)c2)c(C(=O)N2Cc3cn(-c4ccc(F)cn4)nc3C2)c1 [Example 548, 5-Fluoro-2-{5-[2-(5-fluoropyridin-3-yl)-5-methanesulfonylbenzoyl]-2H 4H 5H 6H-pyrrolo[3,4-c]pyrazol-2-yl}pyridine]
< 100 | Cc1cncc(-c2ccc(S(C)(=O)=O)cc2C(=O)N2Cc3cn(-c4ccc(F)cn4)nc3C2)c1 [Example 549, 5-Fluoro-2-{5-[5-methanesulfonyl-2-(5-methylpyridin-3-yl)benzoyl]-2H 4H 5H 6H-pyrrolo[3,4-c]pyrazol-2-yl}pyridine]
1000 to 10000 | N#Cc1ccc(-c2ccccc2F)c(C(=O)N2Cc3cn(-c4cncc(F)c4)nc3C2)c1 [Example 550, 4-(2-Fluorophenyl)-3-[2-(5-fluoropyridin-3-yl)-2H 4H 5H 6H-pyrrolo[3,4-c]pyrazole-5-carbonyl]benzonitrile]
100 to 1000 | N#Cc1ccc(-c2cncc(F)c2)c(C(=O)N2Cc3cn(-c4cncc(F)c4)nc3C2)c1 [Example 552, 4-(5-Fluoropyridin-3-yl)-3-[2-(5-fluoropyridin-3-yl)-2H 4H 5H 6H-pyrrolo[3,4-c]pyrazole-5-carbonyl]benzonitrile]
100 to 1000 | N#Cc1ccc(-c2cccnc2)c(C(=O)N2Cc3cn(-c4cncc(F)c4)nc3C2)c1 [Example 553]
1000 to 10000 | Cc1cc(-n2cc3c(n2)CN(C(=O)c2cc(C#N)ccc2-c2ccccc2F)C3)ccn1 [Example 554, 4-(2-Fluorophenyl)-3-[2-(2-methylpyridin-4-yl)-2H 4H 5H 6H-pyrrolo[3,4-c]pyrazole-5-carbonyl]benzonitrile]
100 to 1000 | CS(=O)(=O)c1ccc(-c2cccnc2)c(C(=O)N2Cc3cn(-c4ccccc4F)nc3C2)c1 [Example 555, (2-(2-Fluorophenyl)pyrrolo[3,4-c]pyrazol-5(2H,4H,6H)-yl)(5-(methylsulfonyl)-2-(pyridin-3-yl)phenyl)methanone]
< 100 | Cc1cc(-n2cc3c(n2)CN(C(=O)c2cc(C#N)ccc2-c2cncc(F)c2)C3)ccn1 [Example 556, 4-(5-Fluoropyridin-3-yl)-3-[2-(2-methylpyridin-4-yl)-2H 4H 5H 6H-pyrrolo[3,4-c]pyrazole-5-carbonyl]benzonitrile]
100 to 1000 | N#Cc1ccc(-c2cccc(F)c2)c(C(=O)N2Cc3cn(C4CCOCC4)nc3C2)c1 [Example 557, 4-(3-Fluorophenyl)-3-[2-(oxan-4-yl)-2H 4H 5H 6H-pyrrolo[3,4-c]pyrazole-5-carbonyl]benzonitrile]
> 10000 | Cc1cccc(-c2ccc(C#N)cc2C(=O)N2Cc3cn(C4CCOCC4)nc3C2)c1 [Example 558, 4-(3-Methylphenyl)-3-[2-(oxan-4-yl)-2H 4H 5H 6H-pyrrolo[3,4-c]pyrazole-5-carbonyl]benzonitrile]

IC50 [nM] | Compound
< 100 | CS(=O)(=O)c1ccc(-c2ccccc2F)c(C(=O)N2Cc3cn(-c4ccccc4F)nc3C2)c1 [Example 559, 2-(2-Fluorophenyl)-5-[2-(2-fluorophenyl)-5-methanesulfonylbenzoyl]-2H 4H 5H 6H-pyrrolo[3,4-c]pyrazole]
< 100 | CS(=O)(=O)c1ccc(-c2cccc(F)c2)c(C(=O)N2Cc3cn(-c4ccccc4F)nc3C2)c1 [Example 560, 2-(2-Fluorophenyl)-5-[2-(3-fluorophenyl)-5-methanesulfonylbenzoyl]-2H 4H 5H 6H-pyrrolo[3,4-c]pyrazole]
< 100 | CS(=O)(=O)c1ccc(-c2cncc(F)c2)c(C(=O)N2Cc3cn(-c4ccccc4F)nc3C2)c1 [Example 561, 3-Fluoro-5-{2-[2-(2-fluorophenyl)-2H 4H 5H 6H-pyrrolo[3,4-c]pyrazole-5-carbonyl]-4-methanesulfonylphenyl}pyridine]
100 to 1000 | Cc1cc(-n2cc3c(n2)CN(C(=O)c2cc(C#N)ccc2-c2cc(F)cc(F)c2)C3)ccn1 [Example 562, 4-(3 5-Difluorophenyl)-3-[2-(2-methylpyridin-4-yl)-2H 4H 5H 6H-pyrrolo[3,4-c]pyrazole-5-carbonyl]benzonitrile]
< 100 | CS(=O)(=O)c1ccc(-c2cc(F)cc(F)c2)c(C(=O)N2Cc3cn(-c4cncc(F)c4)nc3C2)c1 [Example 563, 3-{5-[2-(3 5-Difluorophenyl)-5-methanesulfonylbenzoyl]-2H 4H 5H 6H-pyrrolo[3,4-c]pyrazol-2-yl}-5-fluoropyridine]
1000 to 10000 | Cc1cccc(-c2ccc(C#N)cc2C(=O)N2Cc3cn(-c4ccnc(C)c4)nc3C2)c1 [Example 564, 4-(3-Methylphenyl)-3-[2-(2-methylpyridin-4-yl)-2H 4H 5H 6H-pyrrolo[3,4-c]pyrazole-5-carbonyl]benzonitrile]
1000 to 10000 | Cc1cc(-n2cc3c(n2)CN(C(=O)c2cc(C#N)ccc2-c2cccc(C(F)(F)F)c2)C3)ccn1 [Example 565, 3-[2-(2-Methylpyridin-4-yl)-2H 4H 5H 6H-pyrrolo[3,4-c]pyrazole-5-carbonyl]-4-[3-(trifluoromethyl)phenyl]benzonitrile]
< 100 | CS(=O)(=O)c1ccc(-c2ccccc2)c(C(=O)N2Cc3cn(-c4ccc(F)cn4)nc3C2)c1 [Example 566, 5-Fluoro-2-[5-(5-methanesulfonyl-2-phenylbenzoyl)-2H 4H 5H 6H-pyrrolo[3,4-c]pyrazol-2-yl]pyridine]
< 100 | CCS(=O)(=O)c1ccc(-c2ccccc2)c(C(=O)N2Cc3cn(-c4ccnc(C)c4)nc3C2)c1 [Example 567, 4-{5-[5-(Ethanesulfonyl)-2-phenylbenzoyl]-2H 4H 5H 6H-pyrrolo[3,4-c]pyrazol-2-yl}-2-methylpyridine]
< 100 | CCS(=O)(=O)c1ccc(-c2cccc(F)c2)c(C(=O)N2Cc3cn(-c4ccnc(C)c4)nc3C2)c1 [Example 568]
< 100 | CCS(=O)(=O)c1ccc(-c2cc(F)cc(F)c2)c(C(=O)N2Cc3cn(-c4ccnc(C)c4)nc3C2)c1 [Example 569, 4-{5-[2-(3 5-Difluorophenyl)-5-(ethanesulfonyl)benzoyl]-2H 4H 5H 6H-pyrrolo[3,4-c]pyrazol-2-yl}-2-methylpyridine]
< 100 | CCS(=O)(=O)c1ccc(-c2ccccc2)c(C(=O)N2Cc3cn(-c4cncc(F)c4)nc3C2)c1 [Example 570, 3-{5[5-(Ethanesulfonyl)-2-phenylbenzoyl]-2H 4H 5H 6H-pyrrolo[3,4-c]pyrazol-2-yl}-5-fluoropyridine]
< 100 | CCS(=O)(=O)c1ccc(-c2cccc(F)c2)c(C(=O)N2Cc3cn(-c4cncc(F)c4)nc3C2)c1 [Example 571]
100 to 1000 | CCS(=O)(=O)c1ccc(-c2cc(F)cc(F)c2)c(C(=O)N2Cc3cn(-c4cncc(F)c4)nc3C2)c1 [Example 572, 3-{5-[2-(3 5-Difluorophenyl)-5-(ethanesulfonyl)benzoyl]-2H 4H 5H 6H-pyrrolo[3,4-c]pyrazol-2-yl}-5-fluoropyridine]
1000 to 10000 | CC(Oc1ccc(S(C)(=O)=O)cc1C(=O)N1CCc2n[nH]c(-c3ccccc3)c2C1)C(F)(F)F (stereo not shown) [Example 573, 5-{5-Methanesulfonyl-2-[(1 1 1-trifluoropropan-2-yl)oxy]benzoyl}-3-phenyl-2H 4H 5H 6H 7H-pyrazolo[4,3-c]pyridine]
